Experimental data taken from article PMC10714399, “Open Source Antibiotics: Simple Diarylimidazoles Are Potent against Methicillin-Resistant Staphylococcus aureus” (ACS Infectious Diseases, 2023).
In brackets after ≈: the same amount, converted by molar mass. Entries after “also recorded” stand apart in the source; their conditions may differ. Where two headings read alike, the source gives them in different places.

What was measured:
[1] = system: Staphylococcus aureus NCTC 13373 (mecA-positive; methicillin-resistant); assay: In vitro antibacterial activity, MIC (UCL School of Pharmacy assay), MRSA; type: cell-based; conditions: for MIC: Staphylococcus aureus
Summary of the method: (§1)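 Each organism was taken from overnight tryptone soya agar, suspended in PBS at A600 0.1, diluted 1:100 in isosensitest broth and added to serially diluted compound (32 to 0.03 μg/mL).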

[2] = system: Enterococcus faecalis ATCC 51299 (vanA-positive; vancomycin-resistant); assay: In vitro antibacterial activity, MIC (UCL), VRE; type: cell-based
Summary of the method: as §1

[3] = Aqueous solubility; type: physicochemical; conditions: for solubility: thermodynamic from solid
[4] = LogD7.4 (Chrom Log D); type: physicochemical; conditions: chromatographic system (Chrom Log D); pH 7.4, NEU; read-out: LogD 7.4 (NEU)
Description: To guide our initial SAR exploration work, we obtained liver microsomal intrinsic clearance data for 5 of the 18 compounds assayed by CO-ADD (Supporting Information - CDCO Report and Supporting Information - Biology). We then acquired intrinsic clearance (CLint), plasma protein binding (PPB), and solubility data on further compounds throughout the SAR campaign (Supporting Information - Biology, Tables S3 and S4). […] The more polar compounds (lower LogD) had reduced PPB and were more metabolically stable.
Table S4. ADME and Pharmacokinetics: compounds only appearing in the Supplementary […]
MRSA Aqueous HLM CLint Rat Hep CLint
Cmpd MIC Solubility Human PPB (%) (µL/min/mg (µL/min/10x6 LogD7.4
(µg/mL) (µM) protein) cells)
(§2) ADME and toxicity for compounds were measured according to procedures outlined in the manuscript submitted in parallel to this one;2 other procedures were used for those compounds analysed by Monash University (in vitro ADME) or UCL (toxicity), both described in the main

[5] = Human plasma protein binding (PPB); type: in vitro ADME; conditions: human, plasma
[6] = Human liver microsome intrinsic clearance; type: in vitro ADME; conditions: human liver microsomes, NEU; for microsomal CLint: read-out: HLM CLint (NEU)
[7] = Rat hepatocyte intrinsic clearance; type: in vitro ADME
[8] = HEK293 toxicity, 96-well dose-response (UCL; MTT or resazurin, with or without recovery); type: cell-based, human; conditions: human, HEK293 cells; read-out: HEK293 CC50
Experimental: (§3) The importance of balancing potency vs MRSA and cytotoxicity led us to examine a subset of compounds more thoroughly for toxicity against human embryonic kidney cell line HEK293. […] Dmax is a parameter that quantifies toxicity at the highest tested concentration (32 μg/mL for all compounds), calculated as reciprocal percentage of viable cells (100 – viability%), where cells either were allowed to recover or viability was measured immediately after treatment. […] Our efforts focused on trying to replicate the original toxicity experiments (by CO-ADD) with tamoxifen using a protocol modified for use with 96-well plates. Given the variability of protocols and results in the literature,[28] it was important to compare with a standard protocol we have reliably used in our own laboratories.[29]−[33] […] Truly “non-toxic” compounds might be expected to show Dmax < 50% for all experiment variations, e.g., 861. […] A large spread of Dmax values comparing recovery and non-recovery conditions larger than 20% is perhaps indicative of a mechanism of toxicity that persists beyond exposure, i.e., cytotoxic compounds that continue to induce toxicity as cells recover and restart dividing, for example, compounds 865, 870, 871, 980, and 981. […] This variability could be driven by interference of the compounds with the fluorescence readout or resorufin build-up as previously described.[27]
(§4) HEK293 cells (ATCC, UK) at passage 32 were a kind gift from Dr. Ben Allsop from the Translational Research Office at University College London. Cells were tested for mycoplasma using a MycoAlert Detection Kit (Lonza, Switzerland) as per manufacturer instructions, frozen stocks were stored in liquid nitrogen, and cells were re-tested whenever a new aliquot was thawed.
(§5) Cells were maintained in DMEM (Sigma-Aldrich, UK) supplemented with 10% heat-inactivated FBS (Sigma-Aldrich, UK), 1% GlutaMax (ThermoFisher, UK), and 1% sodium pyruvate (Lonza, UK) without antibiotics in an incubator at 37 °C and 5% CO2. Media was changed every 2 days, and cells were passaged every 3–4 days at a subcultivation ratio of 1:10, by detaching the cells with phenol-free TrypLE Express (ThermoFisher, UK), after washing with HBSS Ca^2+/Mg^2+ (ThermoFisher, UK). Up to 55 passages were used throughout the experiments.
(§6) (a) Cell seeding: At subculture, a dilute solution of cells was counted using Trypan Blue (Sigma-Aldrich, UK) and a hemocytometer. Cells were further diluted to 7000 or 50 000 cells/mL for experiments.
(§7) For recovery experiments, 700 cells (100 μL) were seeded in 96-well plates and incubated for 48 h while cells reached exponential phase.
(§8) For non-recovery experiments, 5000 cells (100 μL) were seeded in 96-well plates and incubated for 48 h while cells reached confluence. This is the same number of cells as per the CO-ADD protocol where 384-well plates were used, but we extended the growth time to 48 h to produce a similar confluency.
(§9) Stock solutions were diluted 100 times (to 1% DMSO) to 32 μg/mL in full medium (vortexed briefly) and then serially diluted using a digital pipet (Explorer, Eppendorf, Germany) at a dilution factor of 2 to a final concentration of […].
(§10) (c) Dosing experiments: At the specified time after seeding, media was removed from cells, cells were washed with HBSS Ca^2+/Mg^2+ (100 μL), and 100 μL of diluted compounds were added as per Supporting Information - Biology, Figure S4, and incubated for 24 h.
(§11) After treatment, solutions were removed, and cells were washed with HBSS Ca^2+/Mg^2+. For non-recovery experiments, viability was determined immediately as described below.
(§12) For recovery experiments, fresh media was added to plates (100 μL) and cells were returned to the incubator for another 72 h, after which viability was recorded as described below.
(§13) i. MTT assay: 3-[4,5-Dimethylthiazol-2-yl]-2,5-diphenyltetrazolium bromide (MTT) (Sigma-Aldrich, UK) was dissolved in sterile PBS at 5 mg/mL with sonication (20 min), protected from light. […]

[9] = system: HEK293 cells; assay: as above; type: cell-based, human; conditions: for spread of Dmax values comparing recovery and non-recovery conditions: 32 μg/mL
Experimental: as §3, §4, §5, §6, §7, §8, §9, §10, §11, §12, §13

[10] = system: S. aureus ATCC 25923 (methicillin-susceptible); assay: In vitro antibacterial activity, MIC (UCL), MSSA; type: cell-based, Staphylococcus aureus; conditions: for MIC: Staphylococcus aureus
Summary of the method: as §1

[11] = system: MRC-5SV2 (human lung fibroblast cell line); assay: Toxicity against MRC-5SV2; type: cell-based
Experimental: as §2

[12] = system: PMM (primary mouse macrophages); assay: Toxicity against PMM; type: cell-based
Experimental: as §2

[13] = NEU, read-out: Aqueous Solubility (NEU)
[14] = human plasma, NEU, read-out: Human PPB (NEU) (converted)
[15] = rat hepatocytes, NEU, read-out: Rat Hep CLint (NEU)
[16] = read-out: Human PPB (converted)
[17] = rat, hepatocytes, Figure 4, read-out: Rat Hep CLint

## c1cc(-c2nc3n(c2-c2ccc4occc4c2)CCC3)ccn1 [OSA_000862]
[1]; UCL, read-out: MRSA MIC (UCL)
  MIC: > 32 µg/mL
[2]; read-out: VRE MIC (UCL)
  MIC: > 32 µg/mL
[3]; [13]
  solubility: 89 µM (≈ 26.8 µg/mL)
[4]
  chromatographic logD: 3.2
[5]; [14]
  fraction unbound: 0.017
[6]
  microsomal CLint: 36.8 µL/min/mg
[7]; [15]
  hepatocyte CLint: 44.5 µL/min/1e6 cells
[8]
  CC50 at 24 h: > 32 µg/mL

## c1ccc(-c2nc3n(c2-c2ccc4occc4c2)CCC3)cc1 [compound 869]
[1]
  activity against MRSA, in words: inactive
[1]; read-out: MRSA MIC
  MIC: > 32 µg/mL
[2]; read-out: VRE MIC
  MIC: > 32 µg/mL
[9]
  HEK293 toxicity classification, in words: least toxic
  spread of Dmax values comparing recovery and non-recovery conditions: small difference

## CCCN(c1ccc(F)cc1)c1c(-c2ccccn2)nc2ccccn12 [compound 982]
[1]; 16 h, read-out: MRSA MIC
  MIC: 2 µg/mL (≈ 5.77 µM)
[1]; read-out: MRSA MIC
  MIC: 2 µg/mL (≈ 5.77 µM)
[10]; read-out: MSSA MIC
  MIC: 2 µg/mL (≈ 5.77 µM)
[2]
  VRE MIC: 4 µg/mL
[2]; read-out: VRE MIC
  MIC: 4 µg/mL (≈ 11.5 µM)
[3]; read-out: Aqueous Solubility
  solubility: 3 µM (≈ 1.04 µg/mL)
[5]; [16]
  fraction unbound: 0.007
[7]; [17]
  hepatocyte CLint: 108 µL/min/1e6 cells
[11]
  MRC5 TC50: 1.5 µg/mL
[12]
  PMM TC50: 0.7 µg/mL
[9]
  spread of Dmax values comparing recovery and non-recovery conditions: small difference

## Cc1ccc(-c2c(-c3ccccn3)nc3n2CCC3)cc1 [OSA_000865]
[1]; UCL, read-out: MRSA MIC (UCL)
  MIC: 4 µg/mL (≈ 14.5 µM)
[10]; read-out: MSSA MIC (UCL)
  MIC: 1 µg/mL (≈ 3.63 µM)
[2]; read-out: VRE MIC (UCL)
  MIC: 16 µg/mL (≈ 58.1 µM)
[3]; NEU
  Aqueous Solubility (NEU): 32 µM
[5]; [14]
  fraction unbound: 0.084
[6]
  HLM CLint (NEU): 82 uL/min/mg protein
[7]; rat hepatocytes, NEU
  Rat Hep CLint (NEU): 49.2 uL/min/10x6 cells
[8]
  CC50 at 24 h: 2.1 µg/mL (≈ 7.63 µM)

## Fc1ccc(Nc2c(-c3ccccn3)nc3sccn23)cc1 [compound 984]
[1]
  MRSA MIC: 8 µg/mL
[10]
  MSSA MIC: 4 µg/mL
[2]
  VRE MIC: 8 µg/mL
[11]
  MRC5 TC50: 2.0 µg/mL
[12]
  PMM TC50: 9.9 µg/mL
[9]
  spread of Dmax values comparing recovery and non-recovery conditions: small difference

## c1cncc(-c2nc3n(c2-c2ccc4occc4c2)CCC3)c1 [compound 861]
[1]
  activity against MRSA, in words: inactive
[1]; read-out: MRSA MIC
  MIC: > 32 µg/mL
[2]; read-out: VRE MIC
  MIC: > 32 µg/mL
[9]
  HEK293 toxicity classification, in words: least toxic
[9]; at highest tested concentration 32 μg/mL, all experiment variations
  Dmax (100 – viability%): < 50%

## Fc1ccc(N(CC2CC2)c2c(-c3ccccn3)nc3ccccn23)cc1 [compound 979]
[1]; read-out: MRSA MIC
  MIC: 2 µg/mL (≈ 5.58 µM)
[10]; read-out: MSSA MIC
  MIC: 2 µg/mL (≈ 5.58 µM)
[2]
  VRE MIC: 4 µg/mL
[2]; read-out: VRE MIC
  MIC: 4 µg/mL (≈ 11.2 µM)
[11]
  MRC5 TC50: 2.8 µg/mL
[12]
  PMM TC50: 1.4 µg/mL
[9]
  spread of Dmax values comparing recovery and non-recovery conditions: small difference

## c1ccc(-c2nc3n(c2-c2ccc4occc4c2)CCC3)cc1 [OSA_000869]
[1]; UCL, read-out: MRSA MIC (UCL)
  MIC: > 32 µg/mL
[2]; read-out: VRE MIC (UCL)
  MIC: > 32 µg/mL
[3]; [13]
  solubility: 21 µM (≈ 6.31 µg/mL)
[4]
  chromatographic logD: 4.2
[5]; [14]
  fraction unbound: 0.0031
[6]
  microsomal CLint: 224 µL/min/mg
[7]; [15]
  hepatocyte CLint: 34.5 µL/min/1e6 cells
[8]
  CC50 at 24 h: 13.7 µg/mL (≈ 45.6 µM)

## c1cncc(-c2nc3n(c2-c2ccc4occc4c2)CCC3)c1 [OSA_000861]
[1]; UCL, read-out: MRSA MIC (UCL)
  MIC: > 32 µg/mL
[2]; read-out: VRE MIC (UCL)
  MIC: > 32 µg/mL
[3]; [13]
  solubility: 344 µM (≈ 104 µg/mL)
[4]
  chromatographic logD: 3.2
[5]; [14]
  fraction unbound: 0.015
[6]
  microsomal CLint: 35.5 µL/min/mg
[7]; [15]
  hepatocyte CLint: 40.8 µL/min/1e6 cells
[8]
  CC50 at 24 h: > 32 µg/mL

## c1ccc(-c2nc3ccccn3c2-c2ccc3sccc3c2)nc1 [OSA_000871]
[1]; UCL, read-out: MRSA MIC (UCL)
  MIC: 4 µg/mL (≈ 12.2 µM)
[2]; read-out: VRE MIC (UCL)
  MIC: 8 µg/mL (≈ 24.4 µM)
[3]; [13]
  solubility: 6 µM (≈ 1.96 µg/mL)
[4]
  chromatographic logD: 3.3
[5]; [14]
  fraction unbound: 0.0074
[6]
  microsomal CLint: 105 µL/min/mg
[7]; [15]
  hepatocyte CLint: > 300 µL/min/1e6 cells
[8]
  CC50 at 24 h: 5.5 µg/mL (≈ 16.8 µM)

## c1cc(-c2nc3n(c2-c2ccc4occc4c2)CCC3)ccn1 [compound 862]
[1]
  activity against MRSA, in words: inactive
[1]; read-out: MRSA MIC
  MIC: > 32 µg/mL
[2]; read-out: VRE MIC
  MIC: > 32 µg/mL
[9]
  HEK293 toxicity classification, in words: least toxic; also recorded: non-toxic
[9]; no recovery, MTT
  toxicity in the acute exposure by MTT: more than 50%

## CC(C)CN(c1ccc(F)cc1)c1c(-c2ccccn2)nc2ccccn12 [compound 983]
[1]; 16 h, read-out: MRSA MIC
  MIC: 2 µg/mL (≈ 5.55 µM)
[1]; read-out: MRSA MIC
  MIC: 2 µg/mL (≈ 5.55 µM)
[10]; read-out: MSSA MIC
  MIC: 4 µg/mL (≈ 11.1 µM)
[2]; read-out: VRE MIC
  MIC: 8 µg/mL (≈ 22.2 µM)
[3]; read-out: Aqueous Solubility
  solubility: 8 µM (≈ 2.88 µg/mL)
[5]; [16]
  fraction unbound: 0.004
[7]; [17]
  hepatocyte CLint: 234 µL/min/1e6 cells
[11]
  MRC5 TC50: 19.5 µg/mL
[12]
  PMM TC50: 8.3 µg/mL
[9]
  spread of Dmax values comparing recovery and non-recovery conditions: small difference
